Measurements as given in the NIST ThermoML archive (doi:10.1021/je500092v).
“And” between values parts separate entries of the source, which are not always exact repeats. Identical values can stand only once. Numbers after ± are expanded uncertainties.

Legend:
[1] = Liquid, Ebulliometric method (Recirculating still)
[2] = refractive index (Na D-line) (dimensionless); conditions: 293.15 K; 101.33 kPa; Liquid; Standard Abbe refractometry

| vapor or sublimation pressure ([1]; 313.15 K) | vapor or sublimation pressure ([1]; 335.15 K) | vapor or sublimation pressure ([1]; 363.15 K) | refractive index [2] | vapor or sublimation pressure ([1]; 337.8 K) | vapor or sublimation pressure ([1]; 355.78 K) | vapor or sublimation pressure ([1]; 371.94 K) | vapor or sublimation pressure ([1]; 343.15 K) | vapor or sublimation pressure ([1]; 380.15 K) | vapor or sublimation pressure ([1]; 399.53 K) | vapor or sublimation pressure ([1]; 425.91 K) | vapor or sublimation pressure ([1]; 448.97 K) | Compound |
| --- | --- | --- | --- | --- | --- | --- | --- | --- | --- | --- | --- | --- |
| 45.01 ± 0.48 kPa | 96.56 ± 0.7 kPa | 218.59 ± 1.2 kPa | 1.3838 ± 0.0004 |  |  |  |  |  |  |  |  | C=CCCCC [hex-1-ene] |
|  |  |  | 1.3992 ± 0.0004 | 10 ± 0.23 kPa | 25 ± 0.44 kPa | 50 ± 0.78 kPa |  |  |  |  |  | CCCCO [butan-1-ol] |
| 0.13 ± 0.13 kPa | 0.51 ± 0.13 kPa | 2.18 ± 0.26 kPa and 2.17 ± 0.26 kPa | 1.4703 ± 0.0004 |  |  |  | 0.79 ± 0.26 kPa | 4.98 ± 0.27 kPa | 10 ± 0.34 kPa | 25 ± 0.61 kPa | 50 ± 1.1 kPa | CN1CCCC1=O [N-methylpyrrolidone] |
